# Results taken from BindingDB's records for patent US11590142 (Bugworks Research, 2023).
# Target: DNA gyrase (Escherichia coli, UniProt P0AES4+P0AES6)
# Assay: Enzyme Inhibition Assay
# Protocol: The reactions were then started with the addition of 60 ng relaxed pBR322 plasmid DNA and continued for 45 min at 37° C. The reaction mixture contained 35 mM Tris.HCl (pH 7.5), 24 mM KCl, 1.8 mM spermidine, 4 mM MgCl2, 2 mM DTT, 6.5% (w/v) glycerol, 0.1 mg/mL BSA, and 1 mM ATP. The reaction was then stopped by addition of 0.75 L of Proteinase K (20 mg/mL) and 3 μL of 2% SDS and further incubated at 37° C. for 30 min. This was followed by the addition of 4 μL of STEB (40% (w/v) sucrose, 100 mM Tris-HCl pH8, 1 mM EDTA, 0.5 mg/ml Bromophenol Blue), and the supercoiled/relaxed forms of plasmid DNA were separated by agarose gel electrophoresis. The 1% agarose gels were run for 3 h at 4V/cm in 1×TAE (40 mM Tris, 20 mM Acetic acid, 1 mM EDTA). To visualize the DNA the gels were stained for 10 min with 0.7 g/mL ethidium bromide and excess dye was removed by several washes with water. IC50 were determined by quantifying the supercoiled and relaxed DNA in each of the reactions from a gel image by a densitometric method using the Quantity One Software (Bio-rad).
row,SMILES,IC50
1,"Cn1c(=O)cnc2ccc(OCCNC[C@H]3CN(c4ccc5c(n4)NC(=O)CO5)C(=O)O3)nc21 [US11590142, Compound 3]",0.047 µM
2,"Cn1c(=O)ccc2ncc(OCCNC[C@H]3CN(c4ccc5c(n4)NC(=O)CO5)C(=O)O3)nc21 [US11590142, Compound 5]",0.032 µM
